# Assay results published in US20130178441A1, “Methods for Extending Progression-Free Survival using 10-Propargyl-10-Deazaaminopterin” (ALLOS THERAPEUTICS, INC., priority 2010, published 2013).
# Tests used:
# Assay type in all cases: in vivo, human
# [1] = system: relapsed/refractory PTCL; assay: PROPEL analysis by treatment duration (<1, ≧1, ≧2 cycles of pralatrexate): efficacy; details: for Median PFS by Central Review (months): Kaplan-Meier
# Description: (§1) The pivotal PROPEL study of pralatrexate (FOLOTYN®) in patients with relapsed or refractory PTCL reported a rapid response to treatment in a heavily pretreated patient population. The majority of patients (63% of responders) responded by their first assessment at 7 weeks (the end of cycle 1). The present analysis assessed if there were any unique characteristics of patients who were unable to complete the first cycle of therapy and to assess the outcomes of patients who received ≧1 or ≧2 cycles of pralatrexate. Pralatrexate, a folate analog targeting dihydrofolate reductase, was approved in the United States for treatment of relapsed or refractory PTCL based on the PROPEL study. Methods: In PROPEL, patients received 30 mg/m^2 pralatrexate once weekly for 6 weeks in successive 7-week cycles. […] Cycle completion was determined receiving ≧1 dose in the following cycle. Thus, the subgroup of patients who completed ≧1 (n=64) includes those patients who only completed 1 cycle+the 43 who completed ≧2 cycles of treatment. […] However, the patients not completing cycle lwere more likely to have the angioimmunoblastic subtype (20% vs 6%). Patients in each subgroup received a median of 3 prior treatment regimens.
# [2] = system: relapsed or refractory PTCL; assay: Progressive resistance analysis: PFS and response rate on pralatrexate vs previous lines of therapy (PDX-008, patients as their own control); details: for Progression-free Survival Median: Kaplan-Meier
# Description: Analysis of progressive resistance. The treatment immediately prior to entry into clinical trial PDX-008 provides data from a heterogeneous control group reflecting clinical practice with which to compare the efficacy of pralatrexate. This dataset has the benefit of being from the same patients as those receiving pralatrexate, and so avoids inter-subject variation.
# Methodology: In order to explore this progressive resistance concept, retrospective analyses were performed looking at patients' response and PFS to prior therapies using patients as their own control. It was hypothesized that the response rates and PFS would be lower with each subsequent line of therapy (hypothesis #1). Analyses were conducted on those patients who received at least 3 prior therapies. PFS and response rate of third prior therapy (−3) were compared with those of the second prior therapy (−2), PFS and response rate of second prior therapy (−2) were compared with those last line of therapy (−1) prior to pralatrexate, and PFS and response rate of last line of therapy (−1) were compared with pralatrexate therapy for these patients. These analyses utilized investigator assessment of PFS, and response since central review of tumor assessments on prior therapies was not available.
# Therefore, an analysis was conducted on all patients comparing PFS and response rate of last line of therapy with those of pralatrexate therapy.
# For examining hypothesis #1, there were 57 patients (−3) who had undergone at least 3 prior therapies before entry into PDX-008. […] Examination of the pattern beyond 3 previous treatments would be progressively uninformative as fewer and fewer patients would be entered into the analysis. 1. See also FIG. 2.
# There were 86 patients who had undergone at least 2 prior therapies before entry into PDX-008. This cohort included the 57 patients who received 3 or more previous treatments and 29 additional patients who received exactly 2 treatments prior to treatment with pralatrexate.
# For examining hypothesis #2, PFS and response rate were compared following pralatrexate treatment with the treatment immediately prior to study entry for all 109 PTCL patients evaluated for efficacy in PDX-008. This cohort included the 86 patients who received 2 or more previous treatments and 23 patients who received only 1 treatment prior to pralatrexate.
# Overview of Calculations: Time to progression of disease (PD) was calculated from the start date of the prior therapy administered to the date of progression+1 day.
# PFS time was calculated as the number of days from start of prior treatment to the date of PD (date of PD−start date of prior treatment+1).
# PFS time was calculated as the number of days from start of treatment to the date of PD or death, regardless of cause (date of PD or death−start date of pralatrexate treatment+1).
# In addition, the PFS hazard ratio (HR), along with 95% confidence intervals (CIs), were estimated via the Cox regression model.
# To assess the objective response rate (ORR) and PFS with each subsequent line of therapy and the effect of pralatrexate on ORR and PFS: In the first population group (n=57), i.e., group including patients with ≧3 prior systemic therapies, PFS and ORR of the third therapy prior to pralatrexate (−3) were compared with those of the second prior therapy (−2) to pralatrexate; PFS and ORR of the second prior therapy (2) were compared with those of the most recent line of therapy (−1) prior to pralatrexate; and PFS and ORR of the most recent line of therapy (−1) were compared with pralatrexate therapy for these patients.
# In the second population group (n=86), i.e., group including patients with ≧2 prior systemic therapies, PFS and ORR of the second prior therapy (2) were compared with those of the most recent line of therapy (−1) prior to pralatrexate; and PFS and ORR of the most recent therapy (−1) were compared with pralatrexate therapy for these patients.
# [3] = system: patients with relapsed or refractory PTCL; assay: PROPEL analysis by treatment duration: treatment discontinuation and adverse events
# Description: as §1
# The most frequent reasons for treatment discontinuation were similar for patients with <1 cycle, ≧1 cycle or ≧2 cycles, although the incidence of discontinuation was lower for patients with ≧1 or 2 cycles. […] However, the percentage of patients in whom mucosal inflammation led to treatment discontinuation was similar (<1: 4%; ≧1: 6%; ≧2: 2%). […] Patients who were unable to complete cycle 1 were more likely to have quickly progressed through multiple lines of therapy and were more likely to have the angioimmunoblastic subtype, which a subtype is thought to have a different biology than other PTCL subtypes and lower chemosensitivity. Further analysis of this subtype is warranted.
# [4] = Treatment Duration <1 cycle (n=45)
# [5] = Treatment Duration ≧1 cycle (n=64)
# [6] = Treatment Duration ≧2 cycles (n=43)
# [7] = all patients (≧1 prior therapy), N=109, investigator assessment
# [8] = patients with ≧2 previous treatments, N=86, investigator assessment
# [9] = patients with ≧3 previous treatments, N=57, investigator assessment
structure (smiles),measurement,setting,value
"C#CCC(Cc1cnc2nc(N)nc(N)c2n1)c1ccc(C(=O)N[C@@H](CCC(=O)O)C(=O)O)cc1 (mixture of isomers) [Pralatrexate, (2S)-2-[[4-[(1RS)-1-[(2,4-diaminopteridin-6-yl)methyl]but-3-ynyl]benzoyl]amino]pentanedioic acid]",Median OS (months),[1]; [4],8.2 months
same,ORR by Central Review (CR + CRu + PR),[1]; [4],7%
same,ORR by Investigator Assessment (CR + CRu + PR),[1]; [4],7%
same,Median PFS by Central Review (months),[1]; [4],1.3 months
same,Median Duration of Response by Central Review (months),[1]; [5],10.1 months
same,Median OS (months),[1]; [5],20.5 months
same,ORR by Central Review (CR + CRu + PR),[1]; [5],45%
same,ORR by Investigator Assessment (CR + CRu + PR),[1]; [5],63%
same,Median PFS by Central Review (months),[1]; [5],4.9 months
same,Median Duration of Response by Central Review (months),[1]; [6],13.1 months
same,Median OS (months),[1]; [6],22.9 months
same,ORR by Central Review (CR + CRu + PR),[1]; [6],54%
same,ORR by Investigator Assessment (CR + CRu + PR),[1]; [6],70%
same,Median PFS by Central Review (months),[1]; [6],8.1 months
same,Response Rate,[2]; [7],39%
same,Progression-free Survival Median,[2]; [7],121.00 days
same,"PFS Hazard Ratio, −1 vs pralatrexate","[2]; all patients, N=109, Cox regression, 95% CI",1.051
same,Response Rate (ORR),[2]; [8],40%
same,Progression-free Survival Median,[2]; [8],119.00 days
same,Progression-free Survival Median,"[2]; patients with ≧2 previous treatments, N=86, investigator assessment, listed as pralatrexate",119 days
same,Trend of decreased ORR and PFS with successive lines of therapy,[2]; patients with ≧3 or ≧2 previous treatments,reversed
same,Response Rate (ORR),[2]; [9],40%
same,Progression-free Survival Median,[2]; [9],134.00 days
same,Progression-free Survival Median,"[2]; patients with ≧3 previous treatments, N=57, investigator assessment, listed as pralatrexate",134 days
same,Additional patients with dose reductions in cycle 2 due to mucosal inflammation who continued treatment,[3]; 4 patients,9%
same,Discontinued due to adverse events (AEs),[3]; 45 patients who did not complete cycle 1,29%
same,Incidence of Grade 3-4 anemia,[3]; <1 cycle,27%
same,Incidence of Grade 3-4 mucosal inflammation,[3]; <1 cycle,24%
same,Incidence of Grade 3-4 thrombocytopenia,[3]; <1 cycle,40%
same,Patients in whom mucosal inflammation led to treatment discontinuation,[3]; <1 cycle,4%
same,Patients with dose reductions due to mucosal inflammation in cycle 1 who continued treatment,[3]; Eight patients,13%
same,Patients with a response to pralatrexate,[3]; of the 4 patients with dose reductions in cycle 2 due to mucosal inflammation,3 patients
same,Patients with a response to pralatrexate,[3]; of the 8 patients with dose reductions due to mucosal inflammation in cycle 1,4 patients
same,Incidence of Grade 3-4 anemia,[3]; ≧1 cycle,13%
same,Incidence of Grade 3-4 mucosal inflammation,[3]; ≧1 cycle,19%
same,Incidence of Grade 3-4 thrombocytopenia,[3]; ≧1 cycle,28%
same,Patients in whom mucosal inflammation led to treatment discontinuation,[3]; ≧1 cycle,6%
same,Incidence of Grade 3-4 anemia,[3]; ≧2 cycles,9%
same,Incidence of Grade 3-4 mucosal inflammation,[3]; ≧2 cycles,12%
same,Incidence of Grade 3-4 thrombocytopenia,[3]; ≧2 cycles,21%
same,Patients in whom mucosal inflammation led to treatment discontinuation,[3]; ≧2 cycles,2%
